Calls of active or inactive are those of the source.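 Rule for the calls: active = raises or lowers thallium flux through KCNQ4 potassium channels at some tested dose, with a fitted dose response curve; inactive = no effect at any dose or no curve.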
Target: Potassium voltage-gated channel subfamily KQT member 4 (Homo sapiens) (UniProt P56696)
Test: KCNQ4 channel modulation, potentiation or inhibition, dose response, selectivity assay for KCNQ2 activator project, thallium flux, KCNQ4-expressing cells (AID 504416)
Settings: FluxOR thallium flux fluorescence

Chain of Potassium voltage-gated channel subfamily KQT member 4 (Homo sapiens) (P56696 whole entry, looked up): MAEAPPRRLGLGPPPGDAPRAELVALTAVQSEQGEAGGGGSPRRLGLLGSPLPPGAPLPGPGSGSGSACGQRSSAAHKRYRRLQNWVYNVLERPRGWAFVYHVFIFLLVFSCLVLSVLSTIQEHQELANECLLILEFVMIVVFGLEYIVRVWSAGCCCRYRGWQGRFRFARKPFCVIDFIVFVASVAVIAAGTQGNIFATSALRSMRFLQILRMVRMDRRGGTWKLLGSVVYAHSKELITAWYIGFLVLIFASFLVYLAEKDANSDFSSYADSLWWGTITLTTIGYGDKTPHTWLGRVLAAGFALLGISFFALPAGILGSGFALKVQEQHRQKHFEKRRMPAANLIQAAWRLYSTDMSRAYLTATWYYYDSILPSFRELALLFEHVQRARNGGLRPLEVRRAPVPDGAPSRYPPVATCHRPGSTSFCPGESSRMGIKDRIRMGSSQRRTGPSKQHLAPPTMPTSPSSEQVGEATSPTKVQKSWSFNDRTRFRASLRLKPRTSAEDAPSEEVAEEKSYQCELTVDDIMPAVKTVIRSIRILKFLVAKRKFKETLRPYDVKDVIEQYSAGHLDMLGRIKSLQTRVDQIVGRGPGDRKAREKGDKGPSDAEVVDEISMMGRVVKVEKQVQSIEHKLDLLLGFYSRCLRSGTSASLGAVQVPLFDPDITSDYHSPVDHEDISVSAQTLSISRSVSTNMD

Row | EC50 [µM] | potentiation (at 30 µM (top of the series)) | Structure (SMILES)
1 | 2.4 | – | Cc1cc(C)c(NC(=O)C2CC3CCC2C3)c(C)c1 (configuration not stated)
2 | – | inactive | Cc1cccc(C)c1NC(=O)C1CC2CCC1C2 (configuration not stated)
